Measured values reported in US20110183949A1, “Use of Fulvestrant in the Treatment of Resistant Breast Cancer” (priority 2000, published 2011).

Key:
estrogen receptor (ER) = conditions: relative to oestradiol equivalent of 1.0; cited from earlier work
breast cancer [1] = experiment: treatment of breast cancer patients who failed previous aromatase inhibitor treatment; type: in vivo, human; conditions: patients previously treated with an aromatase inhibitor (optionally also a SERM) and failed
[2] = system: MCF-7 human breast cancer cells; conditions: MCF-7 cells, cited from earlier work; for reduction in MCF-7 cell numbers (inhibition): same conditions for fulvestrant and tamoxifen (tamoxifen: maximum)
breast cancer [3] = conditions: women whose breast cancer has progressed following tamoxifen therapy; cited from earlier work
MCF-7 tumours = conditions: cited from earlier work

Molecule	relative binding affinity for the estrogen receptor (ER) (estrogen receptor (ER))	sensitivity of breast cancer to further treatment (breast cancer [1])	IC50 ([2]; read-out: IC50, inhibitory effect on the growth of MCF-7 human breast cancer cells)	reduction in MCF-7 cell numbers (inhibition) [2]	efficacy in phase II trial (breast cancer [3])	duration of growth suppression of established MCF-7 tumours versus tamoxifen (MCF-7 tumours; established MCF-7 tumours, compared with tamoxifen treatment)	delay of tumourgenesis versus tamoxifen-treated mice (MCF-7 tumours; mice)	sensitivity of tamoxifen-resistant MCF-7 tumours to treatment (MCF-7 tumours; tumours grown out after long-term treatment with tamoxifen)
C[C@]12CC[C@@H]3c4ccc(O)cc4C[C@@H](CCCCCCCCC[S+]([O-])CCCC(F)(F)C(F)(F)F)[C@H]3[C@@H]1CC[C@@H]2O (stereo partly drawn) [fulvestrant, 7-alpha-[9-(4,4,5,5,5pentafluoropentylsulphiny)nonyl]-estra-1,3,5(10)-triene-3, 17βdiol]	0.89	sensitive to further treatment by fulvestrant	0.29 nM	80%	demonstrated efficacy	twice as long	delayed to a greater extent	remain sensitive to fulvestrant treatment
CC/C(=C(\c1ccccc1)c1ccc(OCCN(C)C)cc1)c1ccccc1 [tamoxifen]				≤ 50%				
oestradiol	1.0							
